Measurements reported in patent publication US12636371B2, “Chemically coupled transporter for low-hydrophobicity bioactive drugs into the central nervous system” (Skybio LLC, priority 2021, dated 2026).
pEC50: −log10 of the molar value.

Columns and labels:
E. coli DH5α = assay: Antibiotic activity by disc diffusion assay (MIC); assay type: cell-based; conditions: disc diffusion, two-fold serial dilutions from 2 mg/ml, LB solid medium, overnight 37° C.
Method: In order to examine the antibiotic activity of the compounds synthesized in Example 1, an assay was performed using E. coli DH5α (Gram(−)), as a sensitive, indicator strain.
The antibacterial activities of test compounds were evaluated using the disc diffusion method (Kavanagh, F. Dilution methods of antibiotic assays in Analytical Microbiology. 1963; Pomares M F, Vincent P A, Farías R N, Salomón R A. Protective action of ppGpp in microcin J25-sensitive strains. J Bacteriol. 2008-190:4328-34). Briefly, filter-paper discs impregnated with 10 μl of two-fold serial dilutions of the test compounds, and were placed onto LB solid medium Petri dishes. Then, aliquots (50 μl) of an E. coli DH5α culture in stationary phase were mixed with 3 ml of top agar (0.7% agar) and overlaid onto the plates. After overnight incubation at 37° C., the plates were examined for different degrees of inhibition. Inhibition degrees produced by the test compound are expressed as Minimum Inhibitory Concentrations (MICs), defined as the lowest concentration of a compound that inhibit visible growth of bacteria. Each test was performed in duplicate vs. the reference compound Doxycycline.

SH-SY5Y cells [1] = assay: MTT cytotoxicity assay in neuroblastoma SH-SY5Y cells; assay type: cell-based; conditions: 1, 10 and 20 μM, 24 h
Method: The impact of Pegasus (D9) on cellular viability was studied in SH-SY5Y neuroblastoma cell lines using the colorimetric Thiazolyl Blue Tetrazolium […] (MTT) metabolic activity assay (Mosmann T. Rapid colorimetric assay for cellular growth and survival: application to proliferation and cytotoxicity assays. J Immunol Methods 1983; 65(1-2): 55-63), which reports viable cell number based on mitochondrial activity.
SH-SY5Y cells were seeded in 96-well plates at 15,000 cells/well with 100 μl of DMEM supplemented with 10% Fetal Bovine Serum (FBS) and 1% Antibiotics/Antimycotics, and incubated for 24 h at 37° C. and 5% CO2. Afterwards, cells were treated with a 25 μl aliquot of a D9 solution 5 μM, 50 μM or 100 μM (final concentration in well 1 μM, 10 μM and 20 μM, respectively) and incubated for 24 h. To determine cell viability, the MTT assay was used as previously described by Mosmann (1983). All experiments were performed in sextuplicate, and the relative cell viability (%) was expressed as a percentage relative to the untreated control condition.

Bv2 cells = assay: MTT cytotoxicity assay in microglial Bv2 cell line; assay type: cell-based, murine; conditions: 10 and 20 μM, 24 h
Method: The ability of D9 to induce cytotoxicity was also studied using the MTT assay on Bv2 cells, a microglial cell line derived from the C57/BL6 murine model. For this, Bv2 cells were incubated in the presence and in the absence of different Pegasus concentrations at 37° C. Bv2 cells retain the morphology and functional characteristics of microglia and are therefore a widespread microglial model. These cells are immortalized by v-raf/v-myc carrying J2 retrovirus, and express nuclear v-myc and the cytoplasmic v-raf oncogene products as well as the env gp70 antigen at the surface level.
Bv2 cells were seeded in Poly-L-Lysine-treated 96-well plates at 15,000 cells/well and in 100 μl of DMEM supplemented with 10% Fetal Bovine Serum (FBS) and 1% Antibiotics/Antimycotics (PSA) and incubated for 24 h at 37° C. and 5% CO2. Afterwards, cells were treated with a 25 μl aliquot of a 50 µM and 100 μM Pegasus solution (final concentration in well 10 μM and 20 μM) and incubated for 24 h. To determine cell viability, the colorimetric MTT metabolic activity assay was used as previously described by Mosmann. All experiments were performed in sextuplicate, and the relative cell viability (%) was expressed as a percentage relative to the untreated control condition.

SH-SY5Y cells [2] = assay: CellROX assay of intracellular reactive oxygen species induced by ASf; assay type: cell-based; conditions: 24 h
Method: In order to characterize the antioxidant properties of D9, its protective action on the AS-induced production of reactive oxygen species (ROS) in a cellular model was assessed. For this, SH-SY5Y cells were treated with fibrils of AS (ASf) (AS incubated 120 h at 37° C. and 600 rpm), and the reactive oxygen species produced were examined using the CellROX® Orange Reagent (Invitrogen), which undergoes oxidation by ROS to form a stable fluorescent compound.
In addition, cells were also treated with doxycycline 10 μM+7 μM ASf (ASf+Doxy) as a positive control, and 10 μM doxycycline alone (Doxy). All conditions were incubated 24 h at 37° C. and 5% CO2. […] Fluorescent images of randomly chosen fields were acquired with identical acquisition parameters using a Zeiss Axio Vert.A1 inverted fluorescence microscope.

D2 dopamine receptor = D2 dopamine receptor (Homo sapiens, UniProt P14416); assay: D2 receptor agonist assay, cAMP Nomad biosensor, U2OS_cAMPNmd_FP650_D2 cells; assay type: cell-based; conditions: 24 h, 10 serial 1:3 dilutions from 30 μM, triplicate; read-out: EC50, D2 receptor activation
Sequence of D2 dopamine receptor (P14416 whole entry): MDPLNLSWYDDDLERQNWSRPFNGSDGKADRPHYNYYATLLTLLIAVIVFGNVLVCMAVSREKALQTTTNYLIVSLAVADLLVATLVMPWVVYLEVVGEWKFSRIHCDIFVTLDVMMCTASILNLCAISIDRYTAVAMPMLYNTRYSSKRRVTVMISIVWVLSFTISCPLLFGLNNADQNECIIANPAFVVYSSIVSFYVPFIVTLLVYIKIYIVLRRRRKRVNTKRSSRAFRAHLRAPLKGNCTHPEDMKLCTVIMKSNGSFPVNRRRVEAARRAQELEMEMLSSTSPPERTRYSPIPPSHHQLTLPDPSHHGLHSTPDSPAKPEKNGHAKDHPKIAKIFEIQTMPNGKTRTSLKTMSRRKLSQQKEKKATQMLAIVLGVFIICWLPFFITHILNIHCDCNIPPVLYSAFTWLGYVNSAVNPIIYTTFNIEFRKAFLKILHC
Method: HEK_cAMPNmd_FP650_D1 and U2OS_cAMPNmd_FP650_D2 cells were seeded at a density of 30.000 and 20.000 cells/well, respectively, in 96-well plates. Cells were maintained in DMEM or DMEM-F12 medium supplemented with 10% FBS during 24 h at 37° C. in a humidified 5% CO2 atmosphere.
Cells were then incubated for 24 h.
To detect Nomad biosensor activation, the assay medium was removed and replaced by […] of DPBS with calcium and magnesium. […] In U2OS_cAMPNmd_FP650_D2 cells, images were acquired using the CellInsight CX7 HCS Platform, and the number of fluorescent vesicles per cell was quantified with the HCS Studio Cell Analysis Software.
The effect of the compounds in the regulation of D1 or D2 receptors' activation was analyzed measuring the CAMP signaling using the Nomad biosensor-based assay.
This same experiment was carried out in the U2OS_cAMPNmd_FP650_D2 cell line (FIG. 10). The effect of the compounds was analyzed quantifying the number of fluorescent vesicles in the cytoplasm of the cells using the HCS Studio Cell Analysis Software.

Structure (SMILES): C[C@H]1c2ccc(NC(=O)CCC(=O)NCCc3ccc(O)c(O)c3)c(O)c2C(=O)C2=C(O)[C@]3(O)C(=O)C(C(N)=O)=C(O)CC3[C@@H](O)C21 (stereo partly drawn) [Pegasus]
- MIC (E. coli DH5α): no antibiotic activity at the concentrations tested
- Cytotoxicity (relative cell viability, MTT) (SH-SY5Y cells [1]): no cytotoxic effect
- Cytotoxicity (relative cell viability, MTT) (Bv2 cells): did not induce cell toxicity
- Intracellular ROS induced by ASf in presence of compound (SH-SY5Y cells [2]; 7 μM ASf + 10 μM compound): no increase in ROS production was observed
- Intracellular ROS induced by compound alone (SH-SY5Y cells [2]; human, 10 μM): neither the presence of D9 nor doxycycline induced intracellular ROS
- pEC50 (D2 dopamine receptor): 4.95
